US12083157B2, “Use of polylysine dendrimers in the prevention and management of acne-prone skin and acneic skin” (Lucas Meyer Cosmetics, priority 2019, dated 2024)
Where “and” joins values, the source holds several entries; their conditions need not be identical. Identical values can stand only once.

Assays:
[1] = tested on: C. acnes strain IP 53117T; assay: Inhibition of C. acnes growth in culture (MIC, 96-well plates); type: cell-based, Cutibacterium acnes; conditions: C. acnes strain IP 53117T (phylotype IA1); 24 to 48 hours at 37° C.
Method: The effectiveness of G2 dendrimer for inhibiting the growth of C. acnes in culture was assessed. G2 dendrimer was used at a final concentration ranging between 10^−2 M and 10^−5M. Experiments were performed using C. acnes strain IP 53117T (see FR2844715 A1), a strain known to cause acne. This strain belongs to a ribotype 1 (RT1) from phylotype 1A1 and is thus an acneic strain.
Bacteria (10^8 CFU/ml) were inoculated in 96-well plates containing a range of G2 dendrimer concentrations.

[2] = tested on: adhesion of tritium-labeled C. acnes IP 53117T to keratinocytes (NCTC 2544); assay: C. acnes adhesion to keratinocytes, Method 1 (concomitant, 2 hours); type: cell-based, Cutibacterium acnes; conditions: after 2 hours, vs absence of G2 dendrimer
Method: (§1) Keratinocytes were isolated from the human epithelial cell line NCTC 2544 (Neufahrt, et al. (1978) Arch. Dermaol. Res. 256(3):255-60). Culture were maintained with Dulbecco's modified Eagle's medium (DMEM) containing 10% fetal calf serum, 1% antibiotics (penicillin/streptomycin), and 1% L-glutamine at 37° C. under 5% CO2 and 95% humidity.
To monitor bacterial adhesion, adenine of the IP 53117T bacterial strain (belonging to acneic phylotype IA1) was labeled with tritium and bacterial adhesion to the surface of keratinocytes was determined by counting the radioactivity. • Method 1. […] After incubation for 2 hours (37° C., 5% CO2), cells were washed with phosphate-buffered saline (PBS) to remove non-adherent bacteria. • Method 2. The keratinocytes were pretreated for 24 hours with the G2 dendrimer. Labeled bacteria (2×10^8 microorganisms/mL) was then added to the cell monolayer for 2 hours without prior removal of the G2 dendrimer.

[3] = tested on: adhesion of tritium-labeled C. acnes IP 53117T to keratinocytes (NCTC 2544); assay: C. acnes adhesion to keratinocytes, Method 2 (24-hour pretreatment); type: cell-based, Cutibacterium acnes
Method: as §1
To monitor bacterial adhesion, adenine of the IP 53117T bacterial strain (belonging to acneic phylotype IA1) was labeled with tritium and bacterial adhesion to the surface of keratinocytes was determined by counting the radioactivity. • Method 1. Labeled bacteria (2×10^8 microorganisms/mL) were combined with varying amounts of G2 dendrimer (final concentration between 10^−5M and 6.25×10^−6 M) and deposited on the surface of a monolayer of keratinocytes. After incubation for 2 hours (37° C., 5% CO2), cells were washed with phosphate-buffered saline (PBS) to remove non-adherent bacteria. • Method 2. The keratinocytes were pretreated for 24 hours with the G2 dendrimer. Labeled bacteria (2×10^8 microorganisms/mL) was then added to the cell monolayer for 2 hours without prior removal of the G2 dendrimer.

IL-8 = assay: IL1-α-induced IL-8 production in normal human dermal fibroblasts (ELISA); type: cell-based
Method: There is evidence that C. acnes is involved in invoking an inflammatory response. […] Therefore, the effect of the G2 dendrimer on inflammation in normal human dermis fibroblasts (NHDF) was assessed. NHDF were isolated from human dermis and maintained in DMEM containing 10% fetal calf serum, 1% antibiotics (penicillin/streptomycin) and 1% L-glutamine at 37° C. under 5% CO2 and 95% humidity.
IL-8 mediates inflammatory reactions in the skin through the recruitment of neutrophils and other immune cells to invade injured or inflamed tissue. IL-8 secretion is inducible in cultured human dermal fibroblasts following activation with the pro-inflammatory cytokine IL-la (Larsen, et al. (1989) Immunology 68(1):31-6). Accordingly, non-confluent NHDF cells were treated with IL1-α (0.1 ng/mL), as an inducer of IL-8 production, in the presence or absence of G2 dendrimer (10^−9M, 10^−8M, 10^−7M or 10^−6 M) or hydrocortisone (0.05 μg/mL) as the positive anti-inflammatory control. IL-8 release from fibroblasts was determined by enzyme-linked immunosorbent assay (ELISA).

[4] = tested on: stratum corneum of human skin explants; assay: Keratolytic effect in human skin explants exposed to C. acnes; type: cell-based; conditions: explants at day 8
Method: (§2) Skin Treatment. Fifteen human skin specimens were obtained from patients undergoing plastic surgery (Caucasian women, 26 years old). Skin explants were maintained in culture for 8 days. A 1-hour treatment with G2 dendrimer (2 and 5 ppm) was concomitant with application of freeze-dried C. acnes (30 μL) at days 0, 1, 4 and 6 (FIG. 2). At day 8, explants were fixed and embedded in paraffin. Thick sections of 5 μm were stained with Masson's Trichrome stain or an anti-TLR2 antibody.
Evaluation of Keratolytic Effect. The general morphology and in particular stratum corneum of the explants were analyzed. Images were taken with a Leica Orthoplan microscope equipped with a digital camera (tri-CCD) driven by the acquisition and archiving software Leica IM1000.

TLR2 = TLR2 immunostaining in human skin explants challenged with C. acnes; type: cell-based; conditions: topical application at 2 and 5 ppm
Method: as §2
Immunostaining of TLR2 TLR2 is known to mediate the inflammatory response of skin to acne (Kim, et al. (2002) 1 Immunol. 169(3):1535-41; McInturff & Kim (2005) Semin. Cutan. Med. Surg. 24(2):73-8). Accordingly, TLR2 protein in frozen sections was assessed with an anti-TLR2 (clone TL2.1; Santa Cruz). Sections were incubated with a 1:25 dilution of the anti-TLR2 antibody overnight at 4° C. and antibody binding was subsequently detected with biotin/streptavidin-FITC conjugate. Nuclei were stained with propidium iodide.

IL1-α = IL1-α quantification in culture media of human skin explants (ELISA); type: cell-based
Method: as §2
Quantification of IL1-α Cytokine. The concentration of IL1-α in the culture media was determined using an ELISA assay kit (Cayman, Ann Arbor, MI). The absorbances were measured using a microplate reader Tecan Infinite M200 Pro, combined with Magellan's software.

[5] = tested on: C. acnes acneic strain RT4 (phylotype IA1); assay: Membrane fluidity of C. acnes strain RT4; type: cell-based, Cutibacterium acnes; conditions: 6·10^−6M, 72 h of incubation
[6] = tested on: C. acnes acneic strain RT5 (phylotype IA1); assay: Membrane fluidity of C. acnes strain RT5; type: cell-based, Cutibacterium acnes; conditions: 6·10^−6M, 72 h of incubation
[7] = tested on: C. acnes non-acneic strain RT6 (phylotype II); assay: Membrane fluidity of C. acnes strain RT6; type: cell-based, Cutibacterium acnes; conditions: 6·10^−6 M, 72 h of incubation
Method: The impact of G2 dendrimer on the membrane fluidity of three bacterial strains of Cutibacterium acnes was tested. Two of the tested strains of C. acnes are “acneic” strains belonging to phylotype IA1 (RT4 and RT5) while the last one is a non-acneic strain (RT6) belonging to phylotype II. Several colonies of RT4, RT5 and RT6 (C. acnes strains) were scrapped and put in reinforced clostridial medium (RMC medium). The tubes were vortexed few seconds and homogenized before to be completely filled out with RMC in order to create anaerobic state. The tubes were then incubated at 37° C. for at least 48 h.
Bacterial cultures were collected and the OD was taken at 580 nm. After inoculation, the bacteria were sending in microplate and treated or not with G2 dendrimer. After 2 hours in anaerobic chamber, the plate was transferred in microplate reader for 72 h (OD 580 nm with measurement every 30 min). Then, the generation time of the bacteria was analyzed for each C. acnes strains. The G2 Dendrimer was tested at the following concentrations: 6·10^−6M, and 6·10^−7M.

[8] = tested on: Cutibacterium acnes acneic strain ribotype 5 (RT5) HL043PA2/HM-514; assay: Biofilm formation on glass slide, strain RT5; type: cell-based; conditions: 72 h biofilm
Method: (§3) The Cutibacterium acnes acneic strain ribotype 5 (RT5) HL043PA2/HM-514 and the Cutibacterium acnes non-acneic strain ribotype 6 (RT6) HL110PA3/HM-554 were obtained from BEI Resources American Type Culture Collection (Virginia, United States). These two strains belong to the phylotypes IA1 and II, respectively (McDowell, 2017). Bacteria, stored at −80° C., were initially plated on brain-heart infusion (BHI, BD) agar plates for RT6 strain and on reinforced clostridial medium (RCM) agar plates for RT5 strain, and were incubated under anoxic conditions at 37° C. using a BD GasPack™ System. Colonies were transferred into sterile conical 15-mL tubes (Falcon) containing 12 ml of RCM and after vortexing for homogenization, the falcon tube is completely filled with RCM medium and incubated for 72 h at 37° C. […]
(§4) After 72 h (biofilm formation), the RCM medium was carefully removed in each well in order to remove planktonic cells. […] Syto 9 was excited at 488 nm and fluorescence emission was detected from 500 to 550 nm. […] Quantitative analyses of images stacks were performed using the COMSTAT software (see Worldwide Website: imageanalysis.dk/) (Heydorn et al., 2000). Maximal and average biofilm thickness (μm) and their biomass volume (μm^3/μm^2) were determined. […]

[9] = tested on: Cutibacterium acnes non-acneic strain ribotype 6 (RT6) HL110PA3/HM-554; assay: Biofilm formation on glass slide, strain RT6; type: cell-based; conditions: 72 h biofilm
Method: as §3, §4

C. acnes = assay: Inhibition of C. acnes proliferation, comparison with linear polylysine; type: cell-based, Cutibacterium acnes
[10] = Anti-inflammatory effect, comparison with linear polylysine

Molecule: poly(L-lysine) G2 [G2 dendrimer]
- MIC (minimum inhibitory concentration) [1]: 10-20 ppm and 20 ppm
- inhibition of adhesion of C. acnes on keratinocyte surfaces ([2]; 2.5×10^−7 M): 29%
- inhibition of adhesion of C. acnes on keratinocyte surfaces ([2]; 5×10^−6 M): 40%
- inhibition of adhesion of C. acnes on keratinocyte surfaces ([2]; 10^−5 M): 50%
- inhibition of adhesion of C. acnes on keratinocyte surfaces ([3]; 2.5×10^−6 M): 35%
- inhibition of adhesion of C. acnes on keratinocyte surfaces ([3]; 5×10^−6 M): 51%
- inhibition of adhesion of C. acnes on keratinocyte surfaces ([3]; 10^−5M): 50%
- management of IL-8 production following IL1-α stimulation, acetate vs chloride or carbonate counter-anions (IL-8; dermal fibroblasts in vitro): more effective
- keratolytic effect (morphology of stratum corneum) ([4]; 2 ppm topical): moderate separation of the upper layers of the stratum corneum
- keratolytic effect (morphology of stratum corneum) ([4]; 5 ppm topical): lower detachment
- TLR2 overexpression induced by C. acnes (TLR2): complete inhibition
- decrease in IL1-α production compared to treatment with C. acnes (IL1-α; 2 ppm, day 1): 49%
- decrease in IL1-α production compared to treatment with C. acnes (IL1-α; 2 ppm, day 4): 28%
- decrease in IL1-α production compared to treatment with C. acnes (IL1-α; 5 ppm, day 1): 42%
- decrease in IL1-α production compared to treatment with C. acnes (IL1-α; 5 ppm, day 4): 27%
- membrane rigidity (membrane fluidity) vs control [5]: significantly decreased
- membrane rigidity (membrane fluidity) vs control [6]: significantly decreased
- membrane rigidity (membrane fluidity) vs control [7]: does not exhibit any significant effect
- change in biomass density in the biofilm [8]: −50%
- change in thickness of the biofilm [8]: −48%
- biomass density in the biofilm [9]: no effect
- change in thickness of the biofilm [9]: −32%
- inhibition of C. acnes proliferation compared with linear polylysine (C. acnes): more effective than linear polylysine
- anti-inflammatory effect compared with linear polylysine [10]: more effective than linear polylysine

Molecule: C[C@]12CCC(=O)C=C1CC[C@@H]1[C@@H]2[C@@H](O)C[C@@]2(C)[C@H]1CC[C@]2(O)C(=O)CO [hydrocortisone, reference compound]
- decrease of IL-8 production (IL-8; NHDF, IL1-α 0.1 ng/mL, hydrocortisone 0.05 μg/mL): 83%
